Experimental data taken from article PMC9404985, “Development of Dicationic Bisguanidine-Arylfuran Derivatives as Potent Agents against Gram-Negative Bacteria” (Antibiotics, 2022).

Assays:
[1] = Cytotoxicity assay (PrestoBlue) MCF-7; assay type: cell-based; settings: human, MCF-7 cells (breast cancer cell line), 24 h incubation
Procedure: (§1) The cytotoxicity levels of all compounds were evaluated against human Michigan Cancer Foundation-7 (MCF-7) and Hepatoma G2 cell line (HepG2) cell lines. MCF-7 is an extensively characterized breast cancer cell line isolated in 1970 [41], while HepG2 cells were derived from a hepatoma in 1975 [42]. Both cell lines grow robustly during in vitro culture and have been widely used for cytotoxicity testing. Cells of hepatic origin, such as HepG2, are of particular relevance for toxicity studies as many drugs accumulate in the liver during metabolic conversion. Cells were grown in Dulbecco’s Modified Eagle Medium supplemented with 10% fetal calf serum and kept in exponential growth, as previously reported. Before the assay, cells were reseeded into 96-well microtiter plates at a density allowing continued exponential growth and let to settle for 24 h. The compounds were added from a stock solution in DMSO, for a final concentration of 0.3% v/v of the solvent in the culture medium. After 24 h of incubation in presence of the compound, cell viability was assayed using PrestoBlue Cell Viability Reagent (resazurin-based solution, ThermoFisher, Waltham, MA, USA) according to the manufacturer’s instructions. […] Each assay contained a DMSO control at the equivalent starting concentration, positive control (uninhibited cell growth) and negative control (cell medium only). Survival was expressed as percentage of the solvent-only control. […] The Selectivity Index (SI) for each compound and bacterial strain was calculated as the ratio between the mean of the EC50 values for the two human cell lines and the EC50 for the bacterial strain in question ((EC50 MCF-7 + EC50 HepG2)/2)/EC50 bacterial strain).

[2] = Cytotoxicity assay (PrestoBlue) HepG2; assay type: cell-based; settings: human, HepG2 cells (hepatoma cell line), 24 h incubation
Procedure: as §1

[3] = system: B. subtilis (NBRC/ATCC #111470); experiment: Antibacterial resazurin assay, laboratory strain; settings: for EC50 / EC90: Bacillus subtilis, ATCC111470, 18 h; for EC50: read-out: Bsu EC50; for EC90: read-out: Bsu EC90; for Selectivity index B. subtilis: mean of MCF-7 and HepG2 EC50 over bacterial EC50, laboratory strain
[4] = system: E. coli MG1655 (CGSC #6300); experiment: Antibacterial resazurin assay, laboratory strain; settings: for EC50 / EC90: Escherichia coli, MG1655, 18 h; for EC50: read-out: Eco EC50; for EC90: read-out: Eco EC90; for Selectivity index E. coli: mean of MCF-7 and HepG2 EC50 over bacterial EC50, laboratory strain
[5] = system: P. putida (NBRC/ATCC #100650); experiment: Antibacterial resazurin assay, laboratory strain; settings: for EC50 / EC90: Pseudomonas putida, ATCC100650, 18 h; for EC50: read-out: Ppu EC50, laboratory strain, 18 h, 37 °C, AlamarBlue; for EC90: read-out: Ppu EC90; for Selectivity index P. putida: mean of MCF-7 and HepG2 EC50 over bacterial EC50, laboratory strain
[6] = system: P. carotovorum (NBRC/ATCC #3380); experiment: Antibacterial resazurin assay, laboratory strain; settings: for EC50 / EC90: Pectobacterium carotovorum, ATCC3380, 18 h; for EC50: read-out: Pcar EC50, laboratory strain, 18 h, 37 °C, AlamarBlue; for EC90: read-out: Pcar EC90; for Selectivity index P. carotovorum: mean of MCF-7 and HepG2 EC50 over bacterial EC50, laboratory strain
[7] = system: P. caledonica (NBRC/ATCC #102488); experiment: Antibacterial resazurin assay, laboratory strain; settings: for EC50 / EC90: Paraburkholderia caledonica, ATCC102488, 18 h; for EC50: read-out: Pcal EC50; for EC90: read-out: Pcal EC90; for Selectivity index P. caledonica: mean of MCF-7 and HepG2 EC50 over bacterial EC50, laboratory strain

SMILES | EC50 at 24 h [1] | EC50 at 24 h [2] | EC50 [3] | EC90 [3] | Selectivity index B. subtilis [3] | EC50 [4] | EC90 [4] | Selectivity index E. coli [4] | EC50 [5] | EC90 [5] | Selectivity index P. putida [5] | EC50 [6] | EC90 [6] | Selectivity index P. carotovorum [6] | EC50 [7] | EC90 [7] | Selectivity index P. caledonica [7]
N#Cc1cc(NC(=N)N)ccc1-c1ccc(-c2ccc(NC(=N)N)cc2C#N)o1 [Compound 7, 2,5-Bis(2-cyano-4-guanidinophenyl)furan] | 46 µM | 78.9 µM | 146 µM | 562 µM | 0.4 | 59.3 µM | 350 µM | 1.1 | 24.5 µM | 51.5 µM | 2.5 | 212 µM | 268 µM | 0.3 | > 300 µM | > 300 µM | –
N=C(N)Nc1ccc2c(c1)CCN2C(=O)c1ccc(-c2ccc(NC(=N)N)cc2C(F)(F)F)o1 [Compound 18, (5-(2-trifluoromethy-4-guanidinophenyl)furan-2-yl)(5-guanidinoindolin-1-yl)methanone] | 123 µM | 508 µM | 9.6 µM | 13.6 µM | 32.9 | 42.3 µM | 58.3 µM | 7.5 | 10.1 µM | 22.2 µM | 31.3 | 94.6 µM | 120 µM | 3.3 | 12.6 µM | 176 µM | 25.1
Cc1cc(Nc2c(N)c(=O)c2=O)ccc1-c1ccc(-c2ccc(Nc3c(N)c(=O)c3=O)cc2C)o1 [Compound 13, 2,5-Bis(2-methyl-4-((3,4-dioxo-2-(amino)cyclobut-1-en-1-yl)amino)phenyl)furan] | > 1000 µM | 137 µM | > 300 µM | > 300 µM | – | > 300 µM | > 300 µM | – | > 300 µM | > 300 µM | – | > 300 µM | > 300 µM | – | > 300 µM | > 300 µM | –
Cc1nc(NC(=N)N)ccc1-c1ccc(-c2ccc(NC(=N)N)nc2C)o1 [Compound 9, 2,5-Bis(6-guanidino-2-methylpyridin-3-yl)furan] | > 1000 µM | > 100 µM | 154 µM | 246 µM | 3.6 | 547 µM | > 900 µM | 1.0 | > 300 µM | > 300 µM | – | > 300 µM | > 300 µM | – | 84.8 µM | 213 µM | 6.5
Nc1c(Nc2ccc(-c3ccc(-c4ccc(Nc5c(N)c(=O)c5=O)cc4C(F)(F)F)o3)c(C(F)(F)F)c2)c(=O)c1=O [Compound 14, 2,5-Bis(2-trifluoromethyl-4-((3,4-dioxo-2-(amino)cyclobut-1-en-1-yl)amino)phenyl)furan] | 173 µM | 185 µM | > 300 µM | > 300 µM | – | > 300 µM | > 300 µM | – | > 300 µM | > 300 µM | – | > 300 µM | > 300 µM | – | 90.4 µM | 305 µM | 2.0
N=C(N)Nc1ccc2c(c1)CCN2C(=O)c1ccc(-c2ccccc2Cl)o1 [Compound 19, (5-(2-chlorophenyl)furan-2-yl)(5-guanidinoindolin-1-yl)methanone] | 26.4 µM | 24.8 µM | 14.5 µM | 25.9 µM | 1.8 | 0.5 µM | 2.5 µM | 51.2 | 75 µM | 84.9 µM | 0.3 | 87.1 µM | 130 µM | 0.3 | 96.3 µM | 287 µM | 0.3
